# Data taken from ChEMBL document CHEMBL1201862, “PubChem BioAssay data set” (2004).
#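 Grown in 96-well plates, cells were treated for 48 hours with each compound at five concentrations. Insufficient inhibition: endpoint recorded as highest concentration tested. At the GI50, growth is halved.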 Active and inactive are the calls of the source. Cut-off read from the data, not from the text of the source: active = GI50 up to about 1.1 µM and inactive = higher.
# Tests used:
# Test in all cases: growth of human tumour cells (NCI), 48 h
# 786-0 = test system: 786-0
# A549 = test system: A549
# ACHN = test system: ACHN
# CAKI-1 = test system: CAKI-1
# CCRF-CEM = test system: CCRF-CEM
# COLO 205 = test system: COLO 205
# DLD-1 = test system: DLD-1
# DMS-114 = test system: DMS-114
# DMS-273 = test system: DMS-273
# EKVX = test system: EKVX
# HCC 2998 = test system: HCC 2998
# HCT-116 = test system: HCT-116
# HOP-62 = test system: HOP-62
# HOP-92 = test system: HOP-92
# HT-29 = test system: HT-29
# IGROV-1 = test system: IGROV-1
# K562 = test system: K562
# KM-20L2 = test system: KM-20L2
# KM12 = test system: KM12
# LOX IMVI = test system: LOX IMVI
# LXFL 529 = test system: LXFL 529
# M14 = test system: M14
# M19-MEL = test system: M19-MEL
# MOLT-4 = test system: MOLT-4
# Malme-3M = test system: Malme-3M
# NCI-H226 = test system: NCI-H226
# NCI-H23 = test system: NCI-H23
# NCI-H460 = test system: NCI-H460
# NCI-H522 = test system: NCI-H522
# OVCAR-3 = test system: OVCAR-3
# OVCAR-4 = test system: OVCAR-4
# OVCAR-5 = test system: OVCAR-5
# OVCAR-8 = test system: OVCAR-8
# RXF 393 = test system: RXF 393
# SF-268 = test system: SF-268
# SF-295 = test system: SF-295
# SF-539 = test system: SF-539
# SK-MEL-28 = test system: SK-MEL-28
# SK-MEL-2 = test system: SK-MEL-2
# SK-MEL-5 = test system: SK-MEL-5
# SK-OV-3 = test system: SK-OV-3
# SN12C = test system: SN12C
# SNB-19 = test system: SNB-19
# SNB-75 = test system: SNB-75
# SNB-78 = test system: SNB-78
# SR = test system: SR
# SW-620 = test system: SW-620
# TK-10 = test system: TK-10
# U-251 = test system: U-251
# UACC-62 = test system: UACC-62
# UO-31 = test system: UO-31
# XF498 = test system: XF498
# A498 = test system: A498
# HCT-15 = test system: HCT-15
# HL-60 = test system: HL-60
# HOP-18 = test system: HOP-18
# RPMI-8226 = test system: RPMI-8226
# UACC-257 = test system: UACC-257
smiles,measurement,setting,value
NC(CCSC(F)F)C(=O)O (centres undefined),GI50,786-0,> 100 µM (inactive)
same,GI50,A549,> 100 µM (inactive)
same,GI50,ACHN,> 100 µM (inactive)
same,GI50,CAKI-1,> 100 µM (inactive)
same,GI50,CCRF-CEM,> 100 µM (inactive)
same,GI50,COLO 205,92.3 µM (inactive)
same,GI50,DLD-1,> 100 µM (inactive)
same,GI50,DMS-114,65.3 µM (inactive)
same,GI50,DMS-273,> 100 µM (inactive)
same,GI50,EKVX,> 100 µM (inactive)
same,GI50,HCC 2998,> 100 µM (inactive)
same,GI50,HCT-116,> 100 µM (inactive)
same,GI50,HOP-62,> 100 µM (inactive)
same,GI50,HOP-92,> 100 µM (inactive)
same,GI50,HT-29,> 100 µM (inactive)
same,GI50,IGROV-1,> 100 µM (inactive)
same,GI50,K562,> 100 µM (inactive)
same,GI50,KM-20L2,> 100 µM (inactive)
same,GI50,KM12,> 100 µM (inactive)
same,GI50,LOX IMVI,> 100 µM (inactive)
same,GI50,LXFL 529,> 100 µM (inactive)
same,GI50,M14,> 100 µM (inactive)
same,GI50,M19-MEL,> 100 µM (inactive)
same,GI50,MOLT-4,> 100 µM (inactive)
same,GI50,Malme-3M,> 100 µM (inactive)
same,GI50,NCI-H226,> 100 µM (inactive)
same,GI50,NCI-H23,> 100 µM (inactive)
same,GI50,NCI-H460,> 100 µM (inactive)
same,GI50,NCI-H522,> 100 µM (inactive)
same,GI50,OVCAR-3,> 100 µM (inactive)
same,GI50,OVCAR-4,> 100 µM (inactive)
same,GI50,OVCAR-5,> 100 µM (inactive)
same,GI50,OVCAR-8,> 100 µM (inactive)
same,GI50,RXF 393,> 100 µM (inactive)
same,GI50,SF-268,> 100 µM (inactive)
same,GI50,SF-295,> 100 µM (inactive)
same,GI50,SF-539,> 100 µM (inactive)
same,GI50,SK-MEL-28,> 100 µM (inactive)
same,GI50,SK-MEL-2,> 100 µM (inactive)
same,GI50,SK-MEL-5,> 100 µM (inactive)
same,GI50,SK-OV-3,> 100 µM (inactive)
same,GI50,SN12C,> 100 µM (inactive)
same,GI50,SNB-19,> 100 µM (inactive)
same,GI50,SNB-75,> 100 µM (inactive)
same,GI50,SNB-78,> 100 µM (inactive)
same,GI50,SR,> 100 µM (inactive)
same,GI50,SW-620,> 100 µM (inactive)
same,GI50,TK-10,> 100 µM (inactive)
same,GI50,U-251,> 100 µM (inactive)
same,GI50,UACC-62,> 100 µM (inactive)
same,GI50,UO-31,> 100 µM (inactive)
same,GI50,XF498,> 100 µM (inactive)
COc1ccc2cc3[n+](cc2c1O)CCc1cc2c(cc1-3)OCO2 [BERBERRUBINE CHLORIDE],GI50,786-0,> 100 µM (inactive)
same,GI50,A498,> 100 µM (inactive)
same,GI50,A549,96.6 µM (inactive)
same,GI50,ACHN,79.8 µM (inactive)
same,GI50,CCRF-CEM,80.7 µM (inactive)
same,GI50,COLO 205,> 100 µM (inactive)
same,GI50,DLD-1,> 100 µM (inactive)
same,GI50,EKVX,> 100 µM (inactive)
same,GI50,HCC 2998,> 100 µM (inactive)
same,GI50,HCT-116,83 µM (inactive)
same,GI50,HCT-15,> 100 µM
same,GI50,HL-60,> 100 µM (inactive)
same,GI50,HOP-18,> 100 µM (inactive)
same,GI50,HOP-62,> 100 µM (inactive)
same,GI50,HT-29,96.4 µM (inactive)
same,GI50,IGROV-1,> 100 µM (inactive)
same,GI50,K562,> 100 µM (inactive)
same,GI50,KM-20L2,> 100 µM (inactive)
same,GI50,KM12,> 100 µM (inactive)
same,GI50,LOX IMVI,40.4 µM (inactive)
same,GI50,LXFL 529,> 10 µM (inactive)
same,GI50,M14,> 100 µM (inactive)
same,GI50,M19-MEL,> 100 µM (inactive)
same,GI50,MOLT-4,52.8 µM (inactive)
same,GI50,Malme-3M,> 100 µM (inactive)
same,GI50,NCI-H226,> 100 µM (inactive)
same,GI50,NCI-H23,70 µM (inactive)
same,GI50,NCI-H460,54 µM (inactive)
same,GI50,NCI-H522,> 100 µM (inactive)
same,GI50,OVCAR-3,> 100 µM (inactive)
same,GI50,OVCAR-4,> 100 µM (inactive)
same,GI50,OVCAR-5,> 100 µM (inactive)
same,GI50,OVCAR-8,> 100 µM (inactive)
same,GI50,RPMI-8226,> 100 µM (inactive)
same,GI50,RXF 393,> 100 µM (inactive)
same,GI50,SF-268,> 100 µM (inactive)
same,GI50,SF-295,> 100 µM (inactive)
same,GI50,SF-539,> 100 µM (inactive)
same,GI50,SK-MEL-28,> 100 µM (inactive)
same,GI50,SK-MEL-2,> 100 µM (inactive)
same,GI50,SK-OV-3,> 100 µM (inactive)
same,GI50,SN12C,> 100 µM (inactive)
same,GI50,SNB-19,> 100 µM (inactive)
same,GI50,SNB-75,> 100 µM (inactive)
same,GI50,SNB-78,> 100 µM (inactive)
same,GI50,SW-620,92.9 µM (inactive)
same,GI50,TK-10,> 100 µM (inactive)
same,GI50,U-251,> 100 µM (inactive)
same,GI50,UACC-257,> 100 µM (inactive)
same,GI50,UACC-62,> 100 µM (inactive)
same,GI50,UO-31,> 100 µM (inactive)
same,GI50,XF498,> 100 µM (inactive)
